# Reference: article PMC9102431, “Natural Compound Shikonin Is a Novel PAK1 Inhibitor and Enhances Efficacy of Chemotherapy against Pancreatic Cancer Cells” (Molecules, 2022)
# Biological target: PAK1 (Homo sapiens, UniProt Q13153)
# Test: ADP-Glo kinase assay with human recombinant PAK1 (also labchip-based screen)
# Assay type: biochemical
# Sequence of PAK1 (Q13153 2-545): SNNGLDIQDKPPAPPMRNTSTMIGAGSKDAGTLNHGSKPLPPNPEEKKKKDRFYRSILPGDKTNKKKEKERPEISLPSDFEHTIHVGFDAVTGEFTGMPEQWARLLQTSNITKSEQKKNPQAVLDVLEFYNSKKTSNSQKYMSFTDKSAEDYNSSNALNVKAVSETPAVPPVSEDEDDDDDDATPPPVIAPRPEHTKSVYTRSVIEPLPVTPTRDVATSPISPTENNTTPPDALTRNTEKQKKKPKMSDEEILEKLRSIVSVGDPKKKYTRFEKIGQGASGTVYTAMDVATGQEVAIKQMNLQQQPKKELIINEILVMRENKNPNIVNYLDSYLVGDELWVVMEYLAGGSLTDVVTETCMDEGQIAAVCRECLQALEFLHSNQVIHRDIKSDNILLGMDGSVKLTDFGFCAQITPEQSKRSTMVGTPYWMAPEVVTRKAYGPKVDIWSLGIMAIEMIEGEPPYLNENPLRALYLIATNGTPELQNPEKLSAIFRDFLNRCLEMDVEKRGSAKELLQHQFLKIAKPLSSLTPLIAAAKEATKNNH
structure (smiles),measurement,value
CC(C)=CC[C@@H](O)C1=CC(=O)c2c(O)ccc(O)c2C1=O [shikonin],IC50,7.252 ± 0.054 µM
